# In ChEMBL document CHEMBL4627407, “Identification of a Potent Oridonin Analogue for Treatment of Triple-Negative Breast Cancer” (J Med Chem, 2020):
# Active and inactive are the calls of the source. The rule behind the calls is not given here.
# Key:
# [1] = test system: DU-4475; assay: Antiproliferative activity against human DU4475 cells after 72 hrs by MTT assay; type: functional, cell-based; details: DU-4475, 72 h
# [2] = test system: HCC1806; assay: Antiproliferative activity against human HCC1806 cells after 72 hrs by MTT assay; type: functional, cell-based; details: HCC1806, 72 h
# [3] = test system: MDA-MB-468; assay: Antiproliferative activity against human MDA-MB-468 cells after 72 hrs by MTT assay; type: functional, cell-based; details: MDA-MB-468, 72 h
# [4] = test system: MDA-MB-231; assay: Antiproliferative activity against human MDA-MB-231 cells after 72 hrs by MTT assay; type: functional, cell-based; details: MDA-MB-231, 72 h
# [5] = test system: DU-4475; assay: Potency index, ratio of oridonin IC50 to compound IC50 for antiproliferative activity against human DU4475 cells after 72 hrs by MTT assay; type: functional
# [6] = test system: HCC1806; assay: Potency index, ratio of oridonin IC50 to compound IC50 for antiproliferative activity against human HCC1806 cells after 72 hrs by MTT assay; type: functional
# [7] = test system: MDA-MB-468; assay: Potency index, ratio of oridonin IC50 to compound IC50 for antiproliferative activity against human MDA-MB-468 cells after 72 hrs by MTT assay; type: functional
# [8] = test system: MDA-MB-231; assay: Potency index, ratio of oridonin IC50 to compound IC50 for antiproliferative activity against human MDA-MB-231 cells after 72 hrs by MTT assay; type: functional
# [9] = test system: NCI/ADR-RES; assay: Antiproliferative activity against human MCF7/ADR cells after 72 hrs by MTT assay; type: functional, cell-based
# [10] = test system: SK-BR-3; assay: Antiproliferative activity against human SK-BR-3 cells after 72 hrs by MTT assay; type: functional, cell-based; details: SK-BR-3, 72 h
# [11] = test system: T47D; assay: Antiproliferative activity against human T47D cells after 72 hrs by MTT assay; type: functional, cell-based
# [12] = test system: MDA-MB-453; assay: Antiproliferative activity against human MDA-MB-453 cells after 72 hrs by MTT assay; type: functional, cell-based; details: MDA-MB-453, 72 h
# [13] = test system: HCC1937; assay: Antiproliferative activity against human HCC1937 cells after 72 hrs by MTT assay; type: functional, cell-based; details: HCC1937, 72 h
# [14] = test system: HCC1806; assay: Antitumor activity against human HCC1806 cells harboring luciferase gene xenografted in ICR mouse assessed as shrunken tumor tissue at 6 mg/kg, iv administered once per 2 days for 21 consecutive days and measured once every week; type: functional, organism-based
# [15] = test system: HCC1806; assay: Antitumor activity against human HCC1806 cells in ICR mouse assessed as reduction in tumor weight at 6 mg/kg, iv administered once per 2 days for 23 consecutive days and measured every 2 days relative to control; type: functional; parameters: scale not given: the % may be the effect or the level left
# [16] = Toxicity in ICR mouse assessed as reduction in body weight at 6 mg/kg, iv administered once per 2 days for 23 consecutive days and measured every 2 days; type: organism-based; details: in vivo, 48 h
# [17] = test system: HCC1806; assay: Antitumor activity against human HCC1806 cells in ICR mouse assessed as tumor shrinkage at 6 mg/kg, iv administered once per 2 days for 23 consecutive days by hematoxylin and eosin staining based histopathological assay; type: functional, organism-based
# [18] = test system: HCC1806; assay: Antitumor activity against human HCC1806 cells in ICR mouse assessed as tumor shrinkage at 6 mg/kg, iv administered once per 2 days for 23 consecutive days by Ki67 staining-based immunohistochemical analysis; type: functional, organism-based
# [19] = test system: HCC1806; assay: Antitumor activity against human HCC1806 cells in ICR mouse assessed as tumor shrinkage at 6 mg/kg, iv administered once per 2 days for 23 consecutive days by TUNEL based immunohistochemical analysis; type: functional, organism-based
# [20] = test system: HCC1806; assay: Antitumor activity against human HCC1806 cells in ICR mouse assessed as increase in apoptosis in tumor at 6 mg/kg, iv administered once per 2 days for 23 consecutive days by hematoxylin and eosin staining based histopathological assay; type: functional, organism-based
# [21] = test system: HCC1806; assay: Antitumor activity against human HCC1806 cells in ICR mouse assessed as increase in apoptosis in tumor at 6 mg/kg, iv administered once per 2 days for 23 consecutive days by Ki67 staining-based immunohistochemical analysis; type: functional, organism-based
# [22] = test system: HCC1806; assay: Antitumor activity against human HCC1806 cells in ICR mouse assessed as increase in apoptosis in tumor at 6 mg/kg, iv administered once per 2 days for 23 consecutive days by TUNEL based immunohistochemical analysis; type: functional, organism-based
SMILES,IC50 [2] [µM],IC50 [3] [µM],IC50 [4] [µM],IC50 [1] [µM],further results
C=C1C(=O)[C@]23[C@H](O)[C@H]1CC[C@H]2[C@]12CCCC(C)(C)[C@H]1[C@H](O)[C@@]3(O)OC2,2.39,2.24,2.96,2.36,Ratio IC50 [5]: 6 - 12; Ratio IC50 [6]: 6 - 12; Ratio IC50 [7]: 6 - 12; Ratio IC50 [8]: 6 - 12
C=C1C(=O)[C@]23[C@H](O)[C@H]1CC[C@H]2[C@@]12CO[C@]3(O)[C@@H](O)[C@@H]1C(C)(C)CC[C@@H]2O [ORIDONIN],21.7,17.3,17.9,16.9,IC50 [9]: 26.2 µM; IC50 [10]: 8.49 µM; IC50 [11]: 7.56 µM; IC50 [12]: 6.67 µM; IC50 [13]: 8.27 µM
C=C1C(=O)[C@@]23C(=O)[C@@H]4OC[C@]5(C=CCC(C)(C)[C@@H]45)[C@@H]2CC[C@@H]1[C@H]3OC(=O)c1cccnc1,2.73,1.37,1.07,2.62,–
C=C1C(=O)[C@@]23C(=O)[C@@H]4OC[C@]5(C=CCC(C)(C)[C@@H]45)[C@@H]2CC[C@@H]1[C@H]3OC(=O)C1CCCCC1,2.58,2.4,1.6,2.14,–
CC(=O)O[C@H]1C(=O)[C@@]2(C)[C@H]([C@H](OC(=O)c3ccccc3)[C@]3(O)C[C@H](OC(=O)[C@H](O)[C@@H](NC(=O)c4ccccc4)c4ccccc4)C(C)=C1C3(C)C)[C@]1(OC(C)=O)CO[C@@H]1C[C@@H]2O [PACLITAXEL],–,–,–,–,Activity [14]: Active; Activity [15]: 66%; Activity [16]: Toxic; Activity [17]: Active; Activity [18]: Active; Activity [19]: Active; Activity [20]: Active; Activity [21]: Active; Activity [22]: Active
C=C1C(=O)[C@@]23C(=O)[C@@H](OC(C)=O)[C@@H]4C(C)(C)CC=C[C@@]4(COC(C)=O)[C@@H]2CC[C@@H]1[C@H]3OC(C)=O,2.42,1.66,3.71,1.9,–
C=C1C(=O)[C@]23[C@H](O)[C@H]1CC[C@H]2[C@]12C=CCC(C)(C)[C@H]1[C@H](O)[C@@]3(O)OC2,2.35,1.44,2.33,1.61,Ratio IC50 [5]: 6 - 12; Ratio IC50 [6]: 6 - 12; Ratio IC50 [7]: 6 - 12; Ratio IC50 [8]: 6 - 12
C=C1C(=O)[C@@]23C(=O)[C@@H]4OC[C@]5(C=CCC(C)(C)[C@@H]45)[C@@H]2CC[C@@H]1[C@H]3OC(=O)/C=C/c1ccsc1,2.74,3.07,2.18,2.82,–
C=C1C(=O)[C@]23[C@H](O)[C@H]1CC[C@H]2[C@]12CCCC(C)(C)[C@H]1C[C@@]3(O)OC2,2.92,2.45,3.44,1.88,–

# Now from value to compound, other results behind:
IC50 [2] [µM],IC50 [3] [µM],IC50 [4] [µM],SMILES,IC50 [1] [µM],further results
1.17,1.38,1.13,C=C1C(=O)[C@@]23C(=O)[C@@H]4OC[C@]5(C=CCC(C)(C)[C@@H]45)[C@@H]2CC[C@@H]1[C@H]3OC(=O)c1ccc(S(C)(=O)=O)cc1,1.28,–
1.85,1.99,1.48,C=C1C(=O)[C@@]23C(=O)[C@@H]4OC[C@]5(C=CCC(C)(C)[C@@H]45)[C@@H]2CC[C@@H]1[C@H]3OC(=O)/C=C(\C)c1ccccc1,2.44,–
0.74,0.85,0.64,C=C1C(=O)[C@@]23C(=O)[C@@H]4OC[C@]5(C=CCC(C)(C)[C@@H]45)[C@@H]2CC[C@@H]1[C@H]3OC(=O)c1ccncn1,0.85,–
1.62,1.94,1.42,C=C1C(=O)[C@@]23C(=O)[C@@H]4OC[C@]5(C=CCC(C)(C)[C@@H]45)[C@@H]2CC[C@@H]1[C@H]3OC(=O)CCc1ccccc1,1.74,–
1.55,1.63,1.37,C=C1C(=O)[C@@]23C(=O)[C@@H]4OC[C@]5(C=CCC(C)(C)[C@@H]45)[C@@H]2CC[C@@H]1[C@H]3OC(=O)/C=C/c1ccccc1,1.64,–
1.14,1.04,0.85,C=C1C(=O)[C@@]23C(=O)[C@@H]4OC[C@]5(C=CCC(C)(C)[C@@H]45)[C@@H]2CC[C@@H]1[C@H]3OC(=O)/C=C/c1ccncc1F,1.1,–
1.73,0.99,0.76,C=C1C(=O)[C@@]23C(=O)[C@@H]4OC[C@]5(C=CCC(C)(C)[C@@H]45)[C@@H]2CC[C@@H]1[C@H]3OC(=O)C1CC1,1.06,–
